Test results taken from publication PMC3495668, “Serotonin-Induced Hypersensitivity via Inhibition of Catechol O-Methyltransferase Activity” (Molecular Pain, 2012).

T1: catechol O-methyltransferase (COMT) (Sus scrofa, UniProt F1RHN3)
T1 construct: Purified COMT protein (derived from porcine liver), biotinylated at surface lysines
T1 sequence (F1RHN3 1-270): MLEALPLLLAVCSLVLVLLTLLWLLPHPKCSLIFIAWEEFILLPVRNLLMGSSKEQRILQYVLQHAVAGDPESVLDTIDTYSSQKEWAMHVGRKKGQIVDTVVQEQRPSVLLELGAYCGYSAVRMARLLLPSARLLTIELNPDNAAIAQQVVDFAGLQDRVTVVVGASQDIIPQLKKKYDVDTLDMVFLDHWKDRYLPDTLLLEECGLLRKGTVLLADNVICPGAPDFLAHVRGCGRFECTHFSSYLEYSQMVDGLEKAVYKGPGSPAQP

B1: catechol O-methyltransferase (COMT) (Sus scrofa) (protein)
chain: T1 sequence (F1RHN3 1-270)
notes: Purified COMT

Tests used:
[1] = target: T1, catechol O-methyltransferase (COMT); experiment: SPR (Biacore […]); also radiolabelled SAM activity assay, Ki,app […]; type: binding
[2] = substrate: Oc1ccccc1O; experiment: radiolabelled SAM methylation assay, Michaelis-Menten KM; type: biochemical, Sus scrofa; conditions: S-adenosyl-L-methionine; Mg2+ ([…] MgCl2) catechol substrate site

Row | Molecule | Kd [1] [µM] | Km [2] [µM]
1 | NCCc1c[nH]c2ccc(O)cc12 [serotonin] | ~87 | 
2 | B1 |  | 16
